The conditions of data set [1]: cited from earlier work.
The conditions of data set [2]: cited from earlier work. This is another data set of the same source.
For data set [3], the system named is Aβ. The experiment in a line: Aβ in media of SYSY-APP cells, Covance ELISA. Type of data set: cell-based. The protocol:
• 1. Thaw SYSY-APP cells, add to warmed high glucose DMEM with 10% serum, pen-strep in t-75 flask. In 2 days, split culture into 4 flasks. Collect cells from 3 and freeze in liquid N2. Use remaining culture for experiment. • 2. Seed 24-well plate with cells in same media. Grow to confluence. • 3. […] After 16 hr incubation, isolate media, add 10 ul protease inhibitor and spin out cells and debris (3000×g); • 4.
Background: ELISA stands for enzyme-linked immunosorbent assay.

Data set [4] deals with T1, Abl kinase (Homo sapiens, UniProt P00519).
T1 construct: purchased Millipore, Temecula, Calif
The experiment in a line: Abl kinase activity, 32P-ATP / Abltide peptide, scintillation counting. Type of data set: biochemical. The following applies: for Abl kinase activity, CPM (single assay): duplicates 1 and 2. Here is the method: The following were combined in order:
10 μL 2.5× kinase assay buffer
2.5 μL Abl kinase (Millipore, Temecula, Calif.)
1 μL DMSO vehicle or inhibitor in DMSO on ice
2.5 μL Abltide synthetic peptide substrate, biotin-tagged (Millipore, Temecula, Calif.) • Incubate at 30° C. for 10 min.; • Stop by the addition of 12.5 μL 7.5M guanidine HCL to each reaction, vortex. • Spot 12.5 μL on SAM2 biotin capture membrane (Promega Corp., Madison, Wis.) • Wash the membrane (4×2M NaCl; 4×2M NaCl, 1% H3PO4, 2×H2O, at room temp.) • Kinase activity was determined by scintillation counting. • The Scintillation count: final drug concentration shown • Each assay was performed in duplicate.

The conditions of data set [5]: cited from earlier work. The source holds these as a separate data set.
Data set [6] has as its system Aβ. Here is the method: Wild-type C57B1/6 and DBA/2J male mice (age 8-12 weeks) were administered drug or vehicle twice daily for 7 days by intraperitoneal injection.
Animals were sacrificed 12 hr after the last injection. Individual mice were anesthetized with isoflurane and blood samples (100-300 ul) taken by cardiac puncture with heparinized syringes. Samples were placed on ice for 30 minutes in the presence of EDTA and then centrifuged for 20 minutes at 16,000×g at 4° C. The plasma fraction was removed and stored at −80° C. Brains were removed and frozen rapidly on dry ice and stored at −80° C.
Detection of mouse Aβ1-40 in blood and brain samples was performed by using a commercially available immunoassay kit (Biosource mouse Aβ1-40, Catalog No. KMB3481, Invitrogen, Carlsbad, Calif.) or by Western blot. Mouse brain samples were prepared by homogenizing brain tissue in a polytron in the presence of 5M guanidine HCl and 50 mM Tris HCl, pH 8.0 as described in the assay protocol.
Blood samples were diluted 1:5 in standard diluent buffer. Samples were assayed in duplicate and OD450 measured on a Tecan infinite 2000 plate reader.
For Western blots, samples were subjected to P AGE analysis, transferred to PVDF membranes and the Aβ hexamers were visualized using a monoclonal antibody 4G8 directed against mouse Aβ (1:1,000; Covance) using the manufacturer's recommended protocol. Blots were scanned by densitometry, and then reprobed with an antibody to histone H3 (1:50,000; Abcam) as a loading and transfer control. Data are depicted as normalized optical density.

Setting [7] is: 20 mg/kg IP twice daily 7 days, young and old B mice.

We go through six molecules from patent US9707231B2, “Compositions and methods for reduction of amyloid-beta load” (Modgene, LLC, priority 2011, dated 2017).

Where “and” joins values, the source holds several entries; their conditions need not be identical. Equal values may be shown once. Where a name gives a salt, the structure may show the parent alone. Read-outs that look alike come from different tables or passages of the source.

T1 sequence (P00519 whole entry): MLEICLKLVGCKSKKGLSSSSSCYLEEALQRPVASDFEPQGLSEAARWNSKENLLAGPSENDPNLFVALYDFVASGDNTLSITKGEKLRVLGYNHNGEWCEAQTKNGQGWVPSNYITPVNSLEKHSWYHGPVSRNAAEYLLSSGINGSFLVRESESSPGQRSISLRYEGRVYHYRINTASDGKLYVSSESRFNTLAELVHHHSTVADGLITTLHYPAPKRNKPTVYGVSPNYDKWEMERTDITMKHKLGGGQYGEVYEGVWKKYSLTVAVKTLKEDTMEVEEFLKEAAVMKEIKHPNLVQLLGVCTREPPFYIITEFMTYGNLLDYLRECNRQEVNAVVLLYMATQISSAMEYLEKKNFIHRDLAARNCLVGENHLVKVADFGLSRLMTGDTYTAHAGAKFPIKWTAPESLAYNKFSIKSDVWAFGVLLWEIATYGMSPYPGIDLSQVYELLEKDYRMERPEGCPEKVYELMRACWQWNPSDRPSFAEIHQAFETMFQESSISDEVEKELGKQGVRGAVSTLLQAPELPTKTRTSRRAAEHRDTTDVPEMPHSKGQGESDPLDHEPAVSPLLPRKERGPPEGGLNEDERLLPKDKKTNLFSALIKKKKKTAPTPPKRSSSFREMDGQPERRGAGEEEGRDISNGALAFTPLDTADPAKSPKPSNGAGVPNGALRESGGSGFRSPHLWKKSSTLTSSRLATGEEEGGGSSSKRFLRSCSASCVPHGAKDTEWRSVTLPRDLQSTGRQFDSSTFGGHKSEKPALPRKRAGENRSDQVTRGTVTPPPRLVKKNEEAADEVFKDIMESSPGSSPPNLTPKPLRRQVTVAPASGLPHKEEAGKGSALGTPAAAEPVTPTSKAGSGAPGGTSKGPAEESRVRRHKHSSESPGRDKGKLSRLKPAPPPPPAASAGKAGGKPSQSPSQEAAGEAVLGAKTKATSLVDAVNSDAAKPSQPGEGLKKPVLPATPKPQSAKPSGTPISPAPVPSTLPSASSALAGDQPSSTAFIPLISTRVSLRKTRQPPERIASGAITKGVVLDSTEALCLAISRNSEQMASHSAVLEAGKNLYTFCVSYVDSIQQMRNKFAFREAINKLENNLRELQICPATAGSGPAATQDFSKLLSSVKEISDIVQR

Take `COc1cc([S+](C)[O-])ccc1-c1nc2ncccc2[nH]1` (stereo not drawn) [ARL115, sulmazole]: in data set [1] (humans), the “CNS side effects (in words)” value is recorded as “lack the CNS side effects”. For the same molecule, the “log P, calcd.” value in data set [2] (calculated value) is reported as 1.82.

Usually log P stands for the decadic logarithm of the partition coefficient of the neutral form, usually between octanol and water. For `COc1ccc(-c2nc3ncccc3[nH]2)c(OC)c1.Cl` [ARL-57], the “CNS side effects (in words)” value in data set [1] (in vivo) is on record as “spectacular bright color vision”. Moreover, the lipophilicity (log P) in data set [2] (pH 8) is reported as 2.59.

`Cc1cc(NC(=O)c2ccc(CN3CCN(C)CC3)cc2)ccc1Nc1nccc(-c2cccnc2)n1` [Imatinib para-diaminomethylbenzene 3 HCl]: in data set [3] (3-100 μM, 150 μL media supernatant, FIG. 7), the “effect on Aβ concentration (in words)” value was “stronger inhibition of Aβ than does imatinib”.

Take `Cc1ccc(NC(=O)c2ccc(CN3CCNCC3)cc2)cc1Nc1nccc(-c2cccnc2)n1` [N-desmethyl imatinib]: the “Abl kinase activity, CPM (single assay)” value in data set [4] (10 μM final drug concentration, DMSO vehicle 2837/2956) was 540 CPM and 649 CPM; in data set [4] (30 μM final drug concentration) it was 149 CPM. Further, the “Abl kinase activity, AVERAGE of the two assays” value was 595 CPM in data set [4] (10 μM, DMSO vehicle average 2897); 149 CPM in data set [4] (30 μM); 107 CPM in data set [4] (100 μM). Besides, the “Abl kinase inhibition (in words)” value in data set [4] (concentrations 10 to 100 μM, FIG. 8) is “inhibits Abl kinase less than does imatinib”. The “plasma AUC of the metabolite as share of the AUC for imatinib” value in data set [5] (humans) is listed as “about 15%”. Besides, in data set [5] (oral administration in healthy volunteers), the elimination half-life was around 40 h. Also, the “reduction of Aβ compared with imatinib (in words)” value in data set [3] (3-100 uM, 16 hr, 100 μL aliquot, FIG. 6) is recorded as “more effective reduction of Aβ than does imatinib”.

For `Cc1ccc(NC(=O)c2ccc(CN3CCN(C)CC3)cc2)cc1Nc1nccc(-c2cccnc2)n1` [STI-571], in data set [6] (setting [7]), the “reduction of brain levels of Aβ” value is on record as “approximately 50%” and the “reduction of plasma levels of Aβ” value was “approximately 50%”. In addition, the “reduction of circulating (plasma) Aβ” value in data set [6] (highest dose (100 mg/kg) IP twice daily 7 days, young D2 mice) was “approximately 75%”.

On to `Cc1ccc(NC(=O)c2ccc(CN3CCN(C)CC3)cc2)cc1Nc1nccc(-c2cccnc2)n1` [imatinib, reference compound], for which the “Cmax (time)” value in data set [5] (oral administration in pediatric patients) is 2 to 4 h.
